Several values for one entry are separate records, joined by “and”; a condition that tells them apart may be missing. Identical values can stand only once.

This data set can be described thus: UV absorption (ethanol). It counts as physicochemical. Particulars: UV spectrum in ethanol; for εmax: at the λmax of the same cell.

Turning to `C=C(C)Cc1cc(C)cc(-c2nc3ccccc3o2)c1O` [2-benzoxazol-2-yl-4-methyl-6-(2-methyl-allyl)-phenol], the λmax is 299 nm and 333 nm; the εmax was 20,130 and 14,180.

In the case of `C[Si](C)(C)CCCOc1ccc(-c2nc3ccccc3[nH]2)c(O)c1` [Example 3], the λmax is 333 nm and 318 nm; the εmax was 22,200 and 24,250.

`C=C(C)Cc1cc(OC)cc(-c2nc3ccccc3[nH]2)c1O` [2-(1H-benzimidazol-2-yl)-4-methoxy-6-(2-methyl-allyl)-phenol]: the λmax was 302 nm and 343 nm; the εmax was 18,500 and 16,200.

These data come from US6376679B2, “Photoprotective/cosmetic compositions comprising novel benz-x-azole-substituted silane/siloxane sunscreens” (Societe L'Oreal S.A., priority 1997, dated 2002).
